Key:
[1] = system: HIV-1NL4-3; experiment: Two-drug combination anti-HIV cytoprotection assay in MT-4 cells (MTS endpoint, MacSynergy II analysis); type: cell-based
Protocol: Provided below is an evaluation of the anti-HIV-1 activity and cytotoxicity of N6LS in two drug combination studies with Cabotegravir. N6LS was produced using standard methods described in the art. Stock solutions were prepared as listed in Table 4 and were thawed at room temperature on each day of assay setup to generate fresh working drug dilutions that were used that day in the assays. Working dilutions were not stored for re-use in subsequent experiments performed on different days. For each combination assay, N6LS was evaluated using a 20 nM high-test concentration with seven additional serial half-log dilutions. Each dilution of N6LS was tested in combination with five dilutions of the anti-HIV drug, Cabotegravir. In all cases the final DMSO concentration was <0.25%, which has been previously shown to have no effect in the described assays.
For cell preparation, MT-4 cells (obtained from the NIH AIDS Research and Reference Reagent Program) were passaged in T-75 flasks prior to use in the antiviral assay. On the day preceding the assay, the cells were split 1:2 to assure they were in an exponential growth phase at the time of infection. Total cell and viability quantification were performed using a hemacytometer and trypan blue exclusion. Cell viability needed to be greater than 95% for the cells to be utilized in the assay. The cells were re-suspended in tissue culture medium and added to the drug-containing microtiter plates in a volume of 110 μL and at a seeding density of 5.0×10^3 cells/well.
For virus preparation, the virus used for these tests was the CXCR4-tropic virus strain HIV-1NL4-3. This virus was obtained from the NIH AIDS Research and Reference Reagent Program and was grown in MT-4 cells for the production of stock virus pools. For each assay, a pre-titered aliquot of virus was removed from the freezer (−80° C.) and allowed to thaw slowly to room temperature in a biological safety cabinet. The virus was re-suspended and diluted into tissue culture medium such that the amount of virus added to each well, in a volume of 50 μL, was the amount determined to give between 85 to 95% cell-killing at 6 days post infection.
For Plate Format, a checkerboard plate format was used to test five concentrations of Cabotegravir with eight concentrations of N6LS. Combination antiviral efficacy was evaluated on three identical assay plates (i.e., triplicate measurements) that included cell control wells (cells only) and virus control wells (cells plus virus). Combination cytotoxicity was evaluated in parallel on two identical assay plates (i.e., duplicate measurements) that included cell control wells. Antiviral efficacy and cellular toxicity were monitored by MTS staining at the experimental endpoint.
For MTS Endpoint for cell viability, at assay termination, the soluble tetrazolium-based dye MTS (CellTiter 96 Reagent, Promega) was added to each well to determine cell viability and quantify compound toxicity. MTS is metabolized by the mitochondria enzymes of metabolically active cells to yield a soluble formazan product, allowing the rapid quantitative analysis of cell viability and compound cytotoxicity. […] At termination of the assay, 20 μL of MTS reagent was added per well and the microtiter plates were then incubated for 3-4 hours at 37° C., 5% CO2 for the HIV cytoprotection assay; the incubation intervals were chosen based on empirically determined times for optimal MTS reduction. Adhesive plate sealers were used in place of the lids, the sealed plates were inverted several times to mix the soluble formazan product and the plates were read spectrophotometrically at 490/650 nm with a Molecular Devices SpectraMax i3 plate reader.
Combination antiviral assays were performed with MT-4 cells utilizing HIV-1NL4-3, as described above. For each combination assay, five concentrations of Cabotegravir were tested with eight concentrations of N6LS. […]

[2] = system: broad range of HIV-1 strains; conditions: cited from earlier work
[3] = in combination with N6LS, 95% confidence values, experiment 1
[4] = in combination with N6LS, 95% confidence values, experiment 2
[5] = in combination with N6LS, 95% confidence values, experiment 3
[6] = in combination with N6LS, 95% confidence values, n = 3

With `C[C@H]1CO[C@@H]2Cn3cc(C(=O)NCc4ccc(F)cc4F)c(=O)c(O)c3C(=O)N12` [Cabotegravir, N-((2,4-Difluorophenyl)methyl)-6-hydroxy-3-methyl-5,7-dioxo-2,3,5,7,11,11a hexahydro (1,3) oxazolo (3,2-a)pyrido (1,2-d) pyrazine-8-carboxamide] as the molecule, how does the “Drug-drug interaction of the combination” value ([1]; combination of N6LS with Cabotegravir) read?
Its value is “mainly synergistic or additive interactions”.

And the “Antagonism Volume, Result 1” value [1, 3]?
Its value is −45.27 nM^2%.

And the “Synergy Volume, Result 1” value [1, 3]?
The value was 2.32 nM^2%.

What about the “Antagonism Volume, Result 2” value [1, 4] of the same molecule?
The value was 0 nM^2%.

What about the “Synergy Volume, Result 2” value [1, 4] of the same molecule?
Its value is 187.5 nM^2%.

What about the “Antagonism Volume, Result 3” value [1, 5] of the same molecule?
The value was −39.56 nM^2%.

What about the “Synergy Volume, Result 3” value [1, 5] of the same molecule?
Its value is 61.7 nM^2%.

What about the “Mean Antagonism Volume” value [1, 6] of the same molecule?
The value was −28.28 nM^2.

And the “Mean Synergy Volume” value [1, 6]?
The value was 83.84 nM^2.

What about the “potency and antiviral activity” value [2] of the same molecule?
Its value is “subnanomolar potency”.
